Data from patent publication EP4759817A1, “HETEROARYL COMPOUND, PREPARATION METHOD THEREFOR, AND USE THEREOF IN MEDICINE” (Jiangsu Hengrui Pharmaceuticals Co., Ltd., priority 2023, dated 2025).

Legend:
[1] = biological target: T1, Recombinant human PRMT5: MEP50 protein (Homo sapiens, UniProt O14744); test: Inhibitory activity against human PRMT5 enzymatic activity (HTRF quantification of SAH, +MTA); assay type: biochemical; settings: +1 µM MTA; histone H4 peptide substrate (1-21), SAM; 37°C 120 min
T1 construct: purchased active motif 31521
T1 sequence (O14744 whole entry): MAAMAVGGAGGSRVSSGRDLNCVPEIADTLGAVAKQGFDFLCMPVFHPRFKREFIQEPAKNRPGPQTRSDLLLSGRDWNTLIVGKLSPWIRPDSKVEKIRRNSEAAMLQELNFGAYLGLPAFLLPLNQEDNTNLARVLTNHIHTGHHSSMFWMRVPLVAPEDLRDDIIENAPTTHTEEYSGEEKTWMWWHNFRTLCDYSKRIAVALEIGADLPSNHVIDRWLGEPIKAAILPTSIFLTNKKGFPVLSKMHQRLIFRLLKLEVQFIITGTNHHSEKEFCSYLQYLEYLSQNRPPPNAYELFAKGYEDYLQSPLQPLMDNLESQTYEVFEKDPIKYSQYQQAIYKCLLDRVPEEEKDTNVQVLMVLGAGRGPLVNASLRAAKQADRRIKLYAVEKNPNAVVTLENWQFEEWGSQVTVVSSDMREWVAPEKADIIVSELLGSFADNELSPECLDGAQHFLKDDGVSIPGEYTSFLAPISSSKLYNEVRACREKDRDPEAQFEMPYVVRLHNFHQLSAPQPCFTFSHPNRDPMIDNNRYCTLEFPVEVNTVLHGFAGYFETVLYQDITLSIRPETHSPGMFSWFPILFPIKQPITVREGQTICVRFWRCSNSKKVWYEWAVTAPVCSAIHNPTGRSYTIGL
T1 sequence (Q9BQA1 whole entry partner): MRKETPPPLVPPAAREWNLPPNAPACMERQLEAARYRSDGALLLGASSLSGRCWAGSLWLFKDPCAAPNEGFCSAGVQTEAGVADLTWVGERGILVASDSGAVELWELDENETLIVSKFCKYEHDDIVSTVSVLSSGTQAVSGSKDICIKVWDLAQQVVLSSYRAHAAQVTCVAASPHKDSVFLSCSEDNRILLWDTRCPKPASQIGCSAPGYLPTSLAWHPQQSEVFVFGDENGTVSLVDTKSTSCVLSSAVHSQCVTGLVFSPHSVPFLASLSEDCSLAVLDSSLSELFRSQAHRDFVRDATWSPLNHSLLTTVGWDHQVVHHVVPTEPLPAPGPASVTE
Procedure: • 1. Recombinant human PRMT5: MEP50 protein (active motif, 31521) • 2. EPIgeneous Methyltransferase kit (cisbio, 62SAHPEH) • 3. 96-well plate (Sangon Biotech, F610960-0010) • 4. 384-well white plate (Perkin Elmer, 6007290) • 5. 1 M Tris-HCl [pH 8.5] (Sangon Biotech, B548141) • 6. Histone H4 peptide substrates (1-21) (BPS bioscience, 52014) • 7. 5'-deoxy-5'-(methylthio)adenosine (Aladdin, D168979-25 mg) • 8. Tween-20 (Sangon Biotech, A100777-0500) • 9. DMSO (Sigma, D2650) • 10. Incubator (Shanghai Boxun Medical Biological Instrument Corp.) • 11. PHERAstar FS microplate reader (BMG Labtech)
PRMT5 can induce the transfer of a methyl group from S-adenosylmethionine (SAM) to a histone H4 peptide substrate (1-21), generating S-adenosylhomocysteine (SAH). In this experiment, the amount of SAH produced in the reaction is quantified using a Homogeneous Time-Resolved Fluorescence (HTRF) method to evaluate the inhibitory activity of compounds against PRMT5 enzymatic activity.
The sample diluent containing (or not containing) 1 µM 5 '-deoxy-5' - (methylthiyl) adenosine (MTA) was prepared using the EPIgeneous Diluent Buffer from the EPIgeneous Methyltransferase kit. With reference to the instructions, SAM and SAH standards were serially diluted and dispensed at 10 µL per well (in duplicate for each concentration). 2 µL of EPIgeneous Detection Buffer 1 was added to each well, and the plate was centrifuged, shaken to mix thoroughly, and placed at room temperature for 10 min. The SAH d2 Reagent was diluted 32-fold with EPIgeneous Detection Buffer 2, and 4 µL of the diluted SAH-d2 solution was added to each well. The plate was centrifuged and shaken for 2 min to mix thoroughly. The SAH Tb Cryptate Antibody was diluted 50-fold in EPIgeneous Detection Buffer 2. 4 µL of the diluted Tb Cryptate Antibody solution was added to each well, and the plate was centrifuged, shaken for 2 min to mix thoroughly, and left to stand at room temperature for 60 min, followed by reading on a PHERAstar FS microplate reader to obtain the 665/620 ratio. Plotting SAH concentration against the ratio to generate an x-y curve yields a corresponding calculation formula.
Reaction buffer (1×): 50 mM Tris-HCl [pH 8.5], 1 mM DTT, 0.005% Tween-20.
Compound preparation: a 20 mM solution of test compound in 100% DMSO was diluted in 100% DMSO to 1 mM as the highest concentration, and the solution at this concentration was then subjected to a 10-point, 3-fold serial dilution in 100% DMSO in a 96-well plate. Wells containing 100% DMSO served as the blank control. The above-described serially diluted compounds and the 100% DMSO were diluted 20-fold with the reaction buffer to prepare 5× compound solutions, which were mixed thoroughly for use.
The PRMT5:MEP50 was diluted in the reaction buffer to a final concentration of 12.5 nM. Then, 4 µL of the 12.5 nM PRMT5:MEP50 solution was added to each well of a 384-well plate. Wells containing 4 µL of the reaction buffer served as the negative control wells. 2 µL of the 5× compound solution was added to each well. For the negative control wells (no enzyme, no compound) and the positive control wells (no compound), 2 µL of 5% DMSO was added. The plate was sealed with a membrane, centrifuged, shaken for 2 min to mix thoroughly, and placed at room temperature for 20 min.
Preparation of substrate mixture solution: The substrate mixture solution containing 1.5 µM histone H4 peptide substrate (1-21) and 2.5 µM SAM, or 1.5 µM histone H4 peptide substrate (1-21), 2.5 µM SAM and 2.5 µM MTA was prepared in the reaction buffer.
The reaction was initiated by adding 4 µL of the substrate mixture solution (-/+ MTA) to each well. The plate was sealed with a membrane, centrifuged, shaken for 2 min to mix thoroughly, and incubated at 37°C for 120 min in a constant temperature incubator.
Detection: The detection was performed by using the EPIgeneous Methyltransferase kit. […]

[2] = tested on: Lu99 xenografts; test: Efficacy test in subcutaneous Lu99 xenograft model; assay type: in vivo, NUNU nude mice; settings: i.g., qd/21d
Text: To evaluate the inhibitory effect of the compounds of the present disclosure on tumour growth in a subcutaneous xenograft model using the human lung giant cell carcinoma cell line Lu99 in female NUNU nude mice
Using a solution of 20% PEG400 + 70% (10% TPGS) + 5%DMSO+5% (1% HPMCK100LV) solution
Laboratory animals: Female NUNU nude mice, purchased from Zhejiang Vital River Laboratory Animal Technology Co., Ltd. (License No.: SCXK(Zhe)2024-0001; animal qualification certificate No.: 20240524Abzz0619000789), weighing approximately 20-24 g at arrival.
Housing conditions: The mice were housed 5 per cage under a 12/12 h light/dark cycle, constant temperature of 23°C ± 1°C, humidity of 50%-60%, with free access to food and water.
After acclimatisation, NUNU nude mice were grouped and administered as follows: Table 4. Animal grouping and dosing regimen for in vivo efficacy experiment
(§1) 0.1 ml (5 × 10^5 cells ± 50% matrigel) of Lu99 cells (cell-to-matrigel volume ratio = 1 : 1) in the logarithmic growth phase was subcutaneously injected into the right upper limb of each mouse. When the mean tumour volume reached 75 mm^3, mice were randomly assigned to 4 groups (12 mice per group) based on tumour volume and body weight, as shown in Table 4. The day of grouping was designated as D0, and oral gavage administration was initiated once or twice daily for a total of 21 days. The 21st day after administration was designated as D21 (Table 5). Tumour volume and body weight of tumour-bearing mice were measured twice weekly using a calliper and a balance, respectively, and the data were recorded.
All data were plotted and statistically analysed using Excel and GraphPad Prism 10 software.
Tumour volume (V) was calculated using the formula: V = 1/2 × a × b^2, where a represents the length and b represents the width.
Relative tumour proliferation rate: T/C (%) = (T-T0)/(C-C0) × 100(%), where T and C are the tumour volumes of the treated and control groups at the end of the experiment, and T0 and C0 are the corresponding tumour volumes at the start of the experiment.
Tumour growth inhibition: TGI (%) = 100-T/C (%).

[3] = Body weight and survival of tumour-bearing mice in the Lu99 efficacy test; assay type: in vivo, NUNU nude mice; settings: for Surviving animals/group: i.g., qd/21d
Procedure: as §1

| SMILES | IC50 [1] [nM] | Mean tumour volume (mm^3) D21 ([2]; 50 mpk) [mm^3] | TGI (%) D21 ([2]; 50 mpk) [%] | Mean tumour volume (mm^3) D21 ([2]; 100 mpk) [mm^3] | TGI (%) D21 ([2]; 100 mpk) [%] | Mean tumour volume (mm^3) D21 ([2]; 200 mpk) [mm^3] | TGI (%) D21 ([2]; 200 mpk) [%] | effect on body weight of the mice ([3]; 50, 100 and 200 mpk/qd, once daily for 21 days) | Surviving animals/group ([3]; 50 mpk) | Surviving animals/group ([3]; 100 mpk) | Surviving animals/group ([3]; 200 mpk) |
| --- | --- | --- | --- | --- | --- | --- | --- | --- | --- | --- | --- |
| Cn1ncc(-c2ccc3c(=O)[nH]nc(CN)c3c2)c1-c1c(F)cc2c(c1C#N)O[C@H]1CC[C@H]1O2 (atropisomer, axis not shown; (M)) [Compound 1-p1, (M)-(2aS,8aR)-5-(4-(4-(aminomethyl)-1-oxo-1,2-dihydrophthalazin-6-yl)-1-methyl-1H-pyrazol-5-yl)-6-fluoro-1,2,2a,8a-tetrahydrobenzo[b]cyclobuta[e][1,4]dioxine-4-carbonitrile] | 4.91 |  |  |  |  |  |  |  |  |  |  |
| [2H]C([2H])([2H])n1ncc(-c2ccc3c(=O)[nH]nc(CN)c3c2)c1-c1c(F)cc2c(c1C#N)O[C@H]1CC[C@H]1O2 (single isomer, unassigned) [Compound 2-p1] | 5.23 | 574 | 72 | 256 | 90 | 165 | 95 | no effects on body weight | 12/12 | 12/12 | 12/12 |
| [2H]C([2H])([2H])n1ncc(-c2ccc3c(=O)[nH]nc(CN)c3c2)c1-c1c(F)cc2c(c1C#N)N1CCC[C@H]1CO2 (single isomer, unassigned) [Compound 8-p1] | 5.19 |  |  |  |  |  |  |  |  |  |  |
